The values below come from PMC6213047, “Design of Antibacterial Agents: Alkyl Dihydroxybenzoates against Xanthomonas citri subsp. citri” (International Journal of Molecular Sciences, 2018).

In brackets after ≈: the same amount, converted by molar mass. Read-outs that look alike come from different tables or passages of the source.

The test system of assay [1] is Huh-7.5 (human hepatoma cell line). In words: Cytotoxicity MTT assay, Huh-7.5. The note with it: MTT; for IC50: 24 h treatment, read-out: IC50 Huh-7,5. It counts as cell-based. How it is done: (§1) This test is based on the reduction of 3-(4,5-dimethyl-2-thiazolyl)-2,5-diphenyl-2-tetrazole bromide by viable cells, with formation of violet insoluble formazan crystals. Five cell lines were used in order to evaluate the cytotoxic effect of the compounds as a whole.
(§2) The cytotoxicity of compounds 4, 16, 28 and copper oxychloride was determined by MTT assay. The cell lines used were HaCaT (human keratinocyte cell line—CLS 300493), Huh-7.5 (human hepatoma cell line—ATCC® PTA-8561), MRC-5 (human lung fibroblast cell line—ATCC CCL-171), VERO (monkey kidney epithelial cell line—ATCC® CCL81) and ACHN (human renal adenocarcinoma cell line—ATCC® CRL1611). The cells were cultured in appropriate medium recommended by the American Type Culture Collection.
(§3) The assay was performed with the concentration of 10^4 cells for both cell lines, distributed in 96-well plates and incubated at 37 °C in a 5% CO2 controlled atmosphere oven for 24 h. After the incubation period, the cells were treated with the compounds with a range of 1.56–200 μmol L^−1 and incubated for 24 h. The supernatant was removed, then 100 μL of 3-(4,5-dimethyl-2-thiazolyl)-2,5-diphenyl-2H-tetrazolium (MTT) salt at 1 mg mL^−1 diluted in DMEM medium (Gibco Life Technologies, Gaithersburg, MD, USA) was added and incubated for 30 min. Subsequently, the MTT was removed, then 100 μL of DMSO under agitation for 5 min at 60 rpm was added. The plates were read at 570 nm in a FLUOstar Omega/BMG LABTECH plate reader, Offenburg, BW, DE. We carried out the experiments in triplicate and three independent events for statistical analysis (GraphPad Software, San Diego, CA, USA). The MTT assay is based on the tetrazolium salt (yellow-colored) reduction to formazan (purple-colored) by metabolically active cells.

The test system of assay [2] is ACHN (human renal adenocarcinoma cell line). The assay can be described thus: Cytotoxicity MTT assay, ACHN. The conditions noted are these: MTT; for IC50: 24 h treatment, read-out: IC50 ACHN. It counts as cell-based. How it is done:
as §1, §2, §3

The test system of assay [3] is X. citri subsp. citri strain 306 (IBSBF 1594). In words: MIC by Resazurin Microtiter Assay (REMA). It counts as cell-based, Xanthomonas citri subsp. citri. The conditions noted are these: REMA, NYG medium, 29 °C, 12 h. On the procedure: The antibacterial potential of carboxylic acids and their esters were compared to copper oxychloride (a commercial active often used to combat citrus canker). Minimal inhibitory concentration (MIC) values were determined by REMA assay, which measures cellular respiratory activity.
The antibacterial activity of alkyl dihydroxybenzoates and the determination of minimum inhibition concentration (MIC) were performed by the fluorimetric method Resazurin Microtiter Assay (REMA) with some modifications. An overnight culture of X. citri subsp. citri strain 306 (IBSBF 1594) was grown in 20 mL in Nitrogen Yeast Glycerol (NYG) at 29 °C in constant agitation of 180–200 rpm. After 12 h, the Xcc inoculum was dispersed in NYG medium and distributed into a 96 well microtiter plate to a final volume of 100 μL per well (10^5 CFU per well). Stock solutions of tested compounds at 10 mg mL^−1 were prepared in dimethyl sulfoxide (DMSO) and dispersed in NYG medium to obtain 1% DMSO and the final compound concentration range of 0.78–100 μg mL^−1. The negative control was constituted of 100 μL culture medium. In addition, the copper oxychloride was tested as a comparison to alkyl dihydroxybenzoates and kanamycin (20 μg mL^−1), which was used as a control antibiotic. The plate was subsequently incubated at 29 °C for 12 h, and 15 μg mL^−1 freshly prepared resazurin solution in water was added to each well, and the plate was incubated for 2 h. The fluorescence was determined on a Synergy H1 (BioTek, Winooski, VT, USA) microplate reader using the excitation and emission filters at wavelengths of 530 and 590 nm respectively. After the REMA assay, the minimum bactericidal concentration (CBM) assay was performed using a 96-pin stainless steel plate replicator, accurately transferring the wells from the REMA plate to Petri dishes Petri dishes were incubated in oven B.O.D. at 29 °C for 24 to 48 h. The experiments were performed in triplicate.

The test system of assay [4] is MRC-5 (human lung fibroblast cell line). The assay can be described thus: Cytotoxicity MTT assay, MRC-5. The class given is cell-based. The conditions noted are these: MTT; for IC50: 24 h treatment, read-out: IC50 MRC-5. How it is done: as §1, §2, §3
Assay [5] concerns VERO (monkey kidney epithelial cell line). In words: Cytotoxicity MTT assay, VERO. It counts as cell-based. The conditions noted are these: MTT; for IC50: 24 h treatment, read-out: IC50 VERO. How it is done: as §1, §2, §3
In assay [6] the test system is HaCaT (human keratinocyte cell line). The assay can be described thus: Cytotoxicity MTT assay, HaCaT. The class given is cell-based. The conditions noted are these: MTT; for IC50: 24 h treatment, read-out: IC50 HaCaT. How it is done: as §1, §2, §3
Assay [7] deals with Xanthomonas citri subsp. citri. The assay can be described thus: Growth curve of Xcc (OD 600 nm). It counts as cell-based. The note with it: MIC and ½ MIC, 72 h. On the procedure: According to the growth curves of the positive control (PC) and vehicle control (DMSO), it was observed that Xcc reaches the maximum growth phase in a period of 15 h. […] The early growth inhibition (lag phase), which happens in the first hours of contact (period of the first cellular divisions) can be a dynamic process. […] This can be explained because the compounds have bacteriostatic action; that is, as the time passes, the cells become able to recover and restart doubling. Another important finding is that the lag phase consists in the cell adaptation to the new medium conditions and the bacterial population is smaller in relation to the exponential phase facilitates the action of the compounds in the first hours (Figure 1).
An isolated colony of Xanthomonas citri subsp. citri was inoculated in NYG medium for 12 h at 29 °C. After this, the optical density (OD 600 nm) was measured and adjusted to ~0.1. […] Optical density reading was measured on a Synergy H1-BioTek plate reader every 30 min for 72 h. The growth curves were plotted with GraphPad Prism software. At the same time, the degradation assay was performed, solubilizing the compounds in DMSO, which were later incorporated in NYG medium. Later, we scanned the compounds to measure the absorbance values from 210 to 700 nm, and the maximum lambda value of each compound was selected after scanning. After that, punctual readings were carried out every 30 min for 72 h.

In assay [8] the test system is X. citri subsp. citri strain 306 (IBSBF 1594). The note with it: anti-Xcc, previous study ref 25; cited from earlier work.
For assay [9], the system named is Xcc cells membrane integrity. The assay can be described thus: Cellular membrane permeability of Xcc, Live/Dead BacLight kit. The class given is cell-based, Xanthomonas citri subsp. citri. The conditions noted are these: compounds at ¼ MIC, 15 min; nisin as positive control. How it is done:
Membrane integrity was measured by using the commercial assay Live/Dead BacLight® bacterial viability kit (Invitrogen, Carlsbad, CA, USA). We observed cells with intact membrane in fluorescent blue (SYTO 9) and cells with disturbance or affected membrane integrity in red or pink (propidium iodide). The data analyses were plotted as the percentage of cells permeated by propidium iodide (Figure 2).
Phase contrast microscopy was used to observe changes in cell shape and signs of cell division alteration using an objective lens with a magnification of 100×. To evaluate the Xcc cells’ membrane integrity, the BacLight® kit was used. Mixtures of SYTO 9 dyes and propidium iodide (PI). SYTO 9 (blue) can stain nucleic acids in general—with intact or damaged membranes. On the other hand, PI (red) penetrates only the bacteria with damaged membranes, causing overlap in the fluorescence of SYTO 9. Therefore, using a mixture of the dyes, the bacteria with disturbed cell membranes are stained in fluorescent red and the intact cell membranes are stained in fluorescent blue. […] Cellular immobilization was performed on slides containing 1% agarose gel in 0.85% saline buffer. The slides were prepared with 1.0 mL of the agarose solution, which was dispersed in optical microscopy slides and on each slide another slide was placed so that the gel continued like a thin film and was of homogeneous height. The slides were dried at room temperature for approximately 20 min and opened at the time of use, when 10 μL of the cell suspension was deposited in the center and covered with the cover slip. The cells were visualized using the Olympus BX-61 optical microscope equipped with OrcaFlash 2.8 monochrome camera (Hamamatsu, Shizuoka, Japan). Cell Sensation software v11 (Olympus) was used to document and analyze the images.

The mark [10] stands for this setting: 24 h, unit as in text for copper oxychloride.

For `NC[C@H]1O[C@H](O[C@H]2[C@H](O)[C@@H](O[C@H]3O[C@H](CO)[C@@H](O)[C@H](N)[C@H]3O)[C@H](N)C[C@@H]2N)[C@H](O)[C@@H](O)[C@@H]1O` [Kanamycin, kanamycin, reference compound], the IC50 in assay [1], in [2], in assay [4], in assay [5] and in assay [6] was greater than 200 µM throughout. Further, the MIC in assay [3] came to 19.9 µg/mL; in assay [3] (read-out: MIC in μM) it was 40 µM.
Consider `[Cl-].[Cu+2].[Cu+2].[OH-].[OH-].[OH-]` [copper oxychloride, reference compound], for which the “IC50 Huh-7.5” value in assay [1] (setting [10]) is “above 200 μg mL^−1”. Also, the IC50 in assay [1], in assay [2], in assay [4], in assay [5] and in [6] was greater than 200 µM in each case. Further, the “IC50 ACHN” value in assay [2] (setting [10]) was “above 200 μg mL^−1”. The MIC in [3] came out at 43.1 µg/mL. The “effect on Xcc growth curve” value in assay [7] is “inactive”. Further, the “IC50 MRC-5” value in [4] (setting [10]) is “above 200 μg mL^−1”. Also, in assay [5] (setting [10]), the “IC50 VERO” value is on record as “above 200 μg mL^−1”. For the same compound, in [6] (setting [10]), the “IC50 HaCaT” value is “above 200 μg mL^−1”.
As to `CCCCCCCOC(=O)c1cc(O)c(O)c(O)c1` [heptyl gallate], the minimum inhibitory concentration (MIC) in assay [8] is 116 µM (≈ 31.1 µg/mL).
As for nisin [reference compound], the “percentage of cells permeated by propidium iodide” value in assay [9] worked out at 79.47%.
